# Values of other authors, collected in US9358223B2, “Formulation for preventing or reducing bleeding at a surgical site” (WARSAW ORTHOPEDIC, INC., priority 2009, dated 2016).
# System: blood pressure
# Conditions: perioperative period, patients undergoing rhytidectomy
compound,measurement,value
"Clc1cccc(Cl)c1N=C1NCCN1 [Clonidine, 2,6-dichloro-N-2-imidazolidinyldenebenzenamine]",regulation of blood pressure,effectively regulate blood pressure
